Results on 15 compounds are retold here after patent publication US5399785A, “Tyrosinase activity inhibitor” (Nippon Paint Co., Ltd., priority 1992, dated 1995).

One data set has as its target tyrosinase (Sigma Co.). The data set is described as follows: Measurement of tyrosinase activity inhibition (L-DOPA substrate, absorbance at 417 nm). Particulars: substrate 2 mM L-DOPA, phosphate-potassium buffer pH 6.8, tyrosinase 0.5 mg/ml, absorbance 417 nm; read-out: IC50, concentration of tyrosinase activity inhibitor when the tyrosinase activity inhibition (%) is 50%. Type of data set: biochemical. How it is done: The measurement was conducted by the following method.
The reaction reagent used are as follows:
Substrate: 2 mM L-DOPA (Wako Junyaku Co.)
Buffer: 0.1 mM phosphate-potassium solution (pH 6.8)
Inhibitor: 1% solution of the compound of the formula (I), 4-ethylresorcinol, compound of the formula (II), 5-methylresorcinol and compound of the formula (III), 6,6'-di-n-propyl-2,2',4,4'-tetrahydroxydiphenylmethane
Enzyme: tyrosinase (Sigma Co.), 0.5 mg/ml
(2) Measurement of tyrosinase activity inhibition %
In the case of measuring tyrosinase activity inhibition %, a sample solution (No.1 to No.3) was prepared in a spectrophotometric cell (1 ml), by mixing each ingredient in the following formulation shown in Table 1. […]
Formulation of sample solution (ml)
An enzyme solution (0.20 ml) was added to the cell. Three minutes later, the measurement of temporal changes of an absorbance (417 nm) by means of a spectrophotometer had started. The inhibition % was calculated based on the following equation:
Inhibition %=[1-(Ab.3-Ab.1/Ab.2-Ab.1)]×100
With `CCCc1ccc(O)cc1O` [drawing 4 n-Propyl], the IC50 stood at 0.9 µM.

For the compound `CCCCCCCCCc1ccc(O)cc1O` [drawing 4 n-Nonyl], the IC50 was 0.9 µM.

On to `CCCCCc1ccc(O)cc1O` [drawing 4 n-Pentyl], for which the IC50 was found to be 0.8 µM.

As for `CCCc1cc(O)cc(O)c1Cc1c(O)cc(O)cc1CCC` [Example 3, 6,6'-di-n-propyl-2,2',4,4'-tetrahydroxydiphenylmethane], the IC50 is 25 µM.

`CCCCCCCc1ccc(O)cc1O` [drawing 4 n-Heptyl]: the IC50 was determined as 0.7 µM.

For the compound `CCCc1cc(O)cc(O)c1` [drawing 5 n-Propyl], the IC50 was 500 µM.

On to `CCCCCCCCCc1cc(O)cc(O)c1` [drawing 5 n-Nonyl], for which the IC50 came out at 200 µM.

On to `CCc1cc(O)cc(O)c1` [drawing 5 Ethyl], for which the IC50 was found to be 700 µM.

In the case of `Cc1ccc(O)cc1O` [drawing 4 Methyl], the IC50 was found to be 8 µM.

For the compound `Cc1cc(O)cc(O)c1` [drawing 5 Methyl, 5-methylresorcinol], the IC50 turned out to be 5000 µM.

For the compound `CCc1ccc(O)cc1O` [drawing 4 Ethyl, 4-ethylresorcinol], the IC50 was 2 µM.

In the case of `CCCCCc1cc(O)cc(O)c1` [drawing 5 n-Pentyl], the IC50 worked out at 200 µM.

With `CCCCCCCc1cc(O)cc(O)c1` [drawing 5 n-Heptyl], the IC50 was determined as 200 µM.

Test system in a further data set: not given
Assay: not given
As to conditions: prior-art statement, no test described; cited from earlier work.
With `OC[C@H]1O[C@@H](Oc2ccc(O)cc2)[C@H](O)[C@@H](O)[C@@H]1O` [arbutin], the toxicity entry is recorded as “has toxicity”.

A further data set deals with tyrosinase.
Assay: not given
As to conditions: as described in Japanese Patent Kokai No. 4-169515; cited from earlier work.
Consider `NC[C@H]1CC[C@H](C(=O)O)CC1` [tranexamic acid], for which the “tyrosinase activity inhibition effect” value is on record as “low tyrosinase activity inhibition effect”.
